In patent US20260201008A1, “SECRETIN-DERIVED GLP1R SELECTIVE AGONISTS” (GUBRA A/S, priority 2023, published 2026):
Numbered stars: 1 amine (or outer) side, 2 acyl side, 3 side chain; on linkers, the order of the positions; unused ones are H or OH. Square brackets hold non-standard residues; d marks the D form. Side chains are listed from the residue outwards. Peptide text beside a SMILES is read from it. * marks the point of attachment. C20 diacid = O=C(O)CCCCCCCCCCCCCCCCCCC(=O)*; γGlu = O=C(O)[C@H](CCC(=O)[*:2])N[*:1]; AEEA = NCCOCCOCC(=O)O; Aib = CC(C)(N)C(=O)O

Legend:
[1] = Fibril formation of crude library peptides (Thioflavin T); assay type: physicochemical; parameters: key: average ThT fluorescence emission at 480 nm (ex 450 nm), raw units; settings: Physical stability of peptides
Method in brief: (§1)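 Crude peptides at 267 μM in 50 mM sodium acetate pH 4.0 or 50 mM sodium phosphate pH 7.0, pre-incubated 1-2 h at room temperature, then 4 μM final ThT added. Turbidity read first as A600. ThT fluorescence (ex 450/em 480 nm) read every 10 min for 72 h at 40° C, with 5 min shaking before each read; fibril formation = average emission.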

SCTR = SCTR (Homo sapiens, UniProt P47872); test: hSCTR potency, cAMP accumulation in CHO-K1 cells stably overexpressing hSCTR; assay type: cell-based; parameters: alternatively Euroscreen ES-712-AF; FAST-0161L; host or cells: CHO-K1; settings: cAMP accumulation, CHO-K1 cells stably overexpressing hSCTR; read-out: hSCTR potency (pEC50) (converted)
Sequence of SCTR (P47872 23-440): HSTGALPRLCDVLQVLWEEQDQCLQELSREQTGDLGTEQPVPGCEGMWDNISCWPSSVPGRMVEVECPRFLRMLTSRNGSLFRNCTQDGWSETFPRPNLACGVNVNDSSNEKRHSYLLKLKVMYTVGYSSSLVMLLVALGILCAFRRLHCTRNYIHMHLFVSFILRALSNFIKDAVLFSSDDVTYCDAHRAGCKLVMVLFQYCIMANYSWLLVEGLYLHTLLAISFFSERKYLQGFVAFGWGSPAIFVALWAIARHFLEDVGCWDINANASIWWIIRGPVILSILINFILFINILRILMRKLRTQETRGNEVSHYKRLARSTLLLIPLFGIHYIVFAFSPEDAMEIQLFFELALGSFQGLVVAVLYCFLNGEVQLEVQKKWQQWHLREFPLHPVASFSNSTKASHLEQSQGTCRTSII
Method in brief: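 Cells plated at 2000/well in DPBS with 0.05% casein and 0.5 mM IBMX, stimulated 30 min at room temperature with graded compound doses; human secretin as positive control. cAMP read by TR-FRET after 1 h. Purified peptides tested at 11 3-fold dilutions, n=2; EC50 by variable-slope sigmoid fit.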

GLP1R = GLP1R (Homo sapiens, UniProt P43220); test: hGLP1R potency, cAMP accumulation in CHO-K1 cells stably overexpressing hGLP1R; assay type: cell-based; parameters: host or cells: CHO-K1; settings: for EC50: cAMP accumulation, CHO-K1 cells stably overexpressing hGLP1R, read-out: hGLP1R potency (pEC50) (converted); for SCTR EC50/GLP1R EC50 ratio: selectivity ratio, hSCTR vs hGLP1R, cAMP accumulation in CHO-K1 cells
Sequence of GLP1R (P43220 24-463): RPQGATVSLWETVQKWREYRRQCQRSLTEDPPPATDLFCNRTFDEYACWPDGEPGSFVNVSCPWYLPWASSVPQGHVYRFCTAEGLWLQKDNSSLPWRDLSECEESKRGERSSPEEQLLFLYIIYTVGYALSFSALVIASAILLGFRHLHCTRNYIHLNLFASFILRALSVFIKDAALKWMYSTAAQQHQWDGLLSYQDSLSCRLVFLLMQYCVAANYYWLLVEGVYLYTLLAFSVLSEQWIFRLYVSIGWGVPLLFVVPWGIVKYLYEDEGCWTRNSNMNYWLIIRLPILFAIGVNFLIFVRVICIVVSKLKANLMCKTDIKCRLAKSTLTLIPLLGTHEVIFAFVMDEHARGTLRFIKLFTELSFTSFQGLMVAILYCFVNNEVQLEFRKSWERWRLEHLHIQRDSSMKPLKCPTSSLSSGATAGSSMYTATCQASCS
Method in brief: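 CHO-K1 cells stably expressing hGLP1R (2000/well) in DPBS with 0.05% casein and 0.5 mM IBMX were stimulated 30 min at room temperature with graded compound doses; human GLP-1(7-36) served as positive control. cAMP was read by HTRF after 1 h; EC50 came from variable-slope sigmoid fits (purified peptides: 11-point 3-fold, n=2).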

[2] = Turbidity of crude library peptides (absorbance at 600 nm); assay type: physicochemical; settings: Physical stability of peptides
Method in brief: as §1

SMILES | Fibril formation [1] | EC50 (SCTR) [pM] | EC50 (GLP1R) [pM] | SCTR EC50/GLP1R EC50 ratio (GLP1R) | Turbidity (pH 7) [2]
CC[C@H](C)[C@H](NC(=O)[C@H](Cc1ccccc1)NC(=O)[C@H](CCCNC(=N)N)NC(=O)[C@H](CCC(N)=O)NC(=O)[C@H](CC(C)C)NC(=O)[C@H](C)NC(=O)[C@H](C)NC(=O)CNC(=O)[C@H](CCC(=O)O)NC(=O)[C@H](CC(C)C)NC(=O)[C@H](CC(C)C)NC(=O)[C@H](Cc1ccccc1)NC(=O)[C@H](CO)NC(=O)[C@H](Cc1c[nH]c2ccccc12)NC(=O)[C@H](CC(=O)O)NC(=O)[C@H](CO)NC(=O)[C@@H](NC(=O)[C@H](Cc1ccccc1)NC(=O)[C@@H](NC(=O)CNC(=O)[C@H](CCC(=O)O)NC(=O)C(C)(C)NC(=O)[C@@H](N)Cc1c[nH]cn1)[C@@H](C)O)[C@@H](C)O)C(=O)N[C@@H](CCC(N)=O)C(=O)N[C@@H](Cc1c[nH]c2ccccc12)C(=O)N[C@@H](CC(C)C)C(=O)N[C@H](C(N)=O)C(C)C [compound 190] (H-H[Aib]EGTFTSDWSFLLEGAALQRFIQWLV-NH2) | 260000 | 100000 | 63.1 | 1844 | 0.61
CC[C@H](C)[C@H](NC(=O)[C@H](Cc1ccccc1)NC(=O)[C@H](CCCNC(=N)N)NC(=O)[C@H](CCC(N)=O)NC(=O)[C@H](CC(C)C)NC(=O)[C@H](C)NC(=O)[C@H](C)NC(=O)CNC(=O)[C@H](CCC(=O)O)NC(=O)[C@H](CC(C)C)NC(=O)[C@H](CC(C)C)NC(=O)[C@H](Cc1c[nH]c2ccccc12)NC(=O)[C@H](CO)NC(=O)[C@H](Cc1c[nH]c2ccccc12)NC(=O)[C@H](CC(=O)O)NC(=O)[C@H](CO)NC(=O)[C@@H](NC(=O)[C@H](Cc1ccccc1)NC(=O)[C@@H](NC(=O)CNC(=O)[C@H](CCC(=O)O)NC(=O)C(C)(C)NC(=O)[C@@H](N)Cc1c[nH]cn1)[C@@H](C)O)[C@@H](C)O)C(=O)N[C@@H](CCC(N)=O)C(=O)N[C@@H](Cc1c[nH]c2ccccc12)C(=O)N[C@@H](CC(C)C)C(=O)N[C@H](C(N)=O)C(C)C [compound 191] (H-H[Aib]EGTFTSDWSWLLEGAALQRFIQWLV-NH2) | 120310 | 63100 | 79.4 | 904 | 0.61
CC[C@H](C)[C@H](NC(=O)[C@H](Cc1ccccc1)NC(=O)[C@H](CCCNC(=N)N)NC(=O)[C@H](CCC(N)=O)NC(=O)[C@H](CC(C)C)NC(=O)[C@H](C)NC(=O)[C@H](C)NC(=O)CNC(=O)[C@H](CCC(=O)O)NC(=O)[C@H](CC(C)C)NC(=O)[C@H](CC(C)C)NC(=O)[C@H](CCC(=O)O)NC(=O)[C@H](CO)NC(=O)[C@H](Cc1c[nH]c2ccccc12)NC(=O)[C@H](CC(=O)O)NC(=O)[C@H](CO)NC(=O)[C@@H](NC(=O)[C@H](Cc1ccccc1)NC(=O)[C@@H](NC(=O)CNC(=O)[C@H](CCC(=O)O)NC(=O)C(C)(C)NC(=O)[C@@H](N)Cc1c[nH]cn1)[C@@H](C)O)[C@@H](C)O)C(=O)N[C@@H](CCC(N)=O)C(=O)N[C@@H](Cc1c[nH]c2ccccc12)C(=O)N[C@@H](CC(C)C)C(=O)N[C@H](C(N)=O)C(C)C [compound 193] (H-H[Aib]EGTFTSDWSELLEGAALQRFIQWLV-NH2) | 26948 | 12600 | 25.1 | 558 | 0.13
CC(C)C[C@H](NC(=O)[C@H](Cc1ccc(O)cc1)NC(=O)[C@H](CO)NC(=O)[C@H](Cc1ccc(O)cc1)NC(=O)[C@H](CC(=O)O)NC(=O)[C@H](CO)NC(=O)[C@@H](NC(=O)[C@H](Cc1ccccc1)NC(=O)[C@@H](NC(=O)CNC(=O)[C@H](CCC(=O)O)NC(=O)C(C)(C)NC(=O)[C@@H](N)Cc1c[nH]cn1)[C@@H](C)O)[C@@H](C)O)C(=O)N[C@@H](CCCCNC(=O)COCCOCCNC(=O)COCCOCCNC(=O)CC[C@H](NC(=O)CCCCCCCCCCCCCCCCCCC(=O)O)C(=O)O)C(=O)N[C@@H](CCC(=O)O)C(=O)N[C@@H](CCC(=O)O)C(=O)N[C@@H](C)C(=O)NC(C)(C)C(=O)N[C@@H](CC(C)C)C(=O)N[C@@H](CCC(N)=O)C(=O)N[C@@H](CCCNC(=N)N)C(=O)N[C@@H](Cc1ccccc1)C(=O)N[C@@H](CC(C)C)C(=O)N[C@@H](CCC(=O)O)C(=O)N[C@@H](Cc1c[nH]cn1)C(=O)N[C@@H](CC(C)C)C(=O)N[C@H](C(N)=O)C(C)C [compound 196] (H-H[Aib]EGTFTSDYSYLK([AEEA-AEEA-γGlu-C20 diacid])EEA[Aib]LQRFLEHLV-NH2) | 5187 | 20000 | 12.6 | 1743 | 0.08

Other lines, results leading:

Fibril formation [1] | EC50 (SCTR) [pM] | EC50 (GLP1R) [pM] | SCTR EC50/GLP1R EC50 ratio (GLP1R) | Turbidity (pH 7) [2] | SMILES
94029 | 158000 | 15.8 | 10195 | 0.37 | CC[C@H](C)[C@H](NC(=O)[C@H](Cc1ccccc1)NC(=O)[C@H](CCCNC(=N)N)NC(=O)[C@H](CCC(N)=O)NC(=O)[C@H](CC(C)C)NC(=O)[C@H](C)NC(=O)[C@H](C)NC(=O)CNC(=O)[C@H](CCC(=O)O)NC(=O)[C@H](CC(C)C)NC(=O)[C@H](CC(C)C)NC(=O)[C@H](Cc1ccc(O)cc1)NC(=O)[C@H](CO)NC(=O)[C@H](Cc1c[nH]c2ccccc12)NC(=O)[C@H](CC(=O)O)NC(=O)[C@H](CO)NC(=O)[C@@H](NC(=O)[C@H](Cc1ccccc1)NC(=O)[C@@H](NC(=O)CNC(=O)[C@H](CCC(=O)O)NC(=O)C(C)(C)NC(=O)[C@@H](N)Cc1c[nH]cn1)[C@@H](C)O)[C@@H](C)O)C(=O)N[C@@H](CCC(N)=O)C(=O)N[C@@H](Cc1c[nH]c2ccccc12)C(=O)N[C@@H](CC(C)C)C(=O)N[C@H](C(N)=O)C(C)C [compound 189] (H-H[Aib]EGTFTSDWSYLLEGAALQRFIQWLV-NH2)
29535 | 50100 | 126 | 383 | 0.54 | CC[C@H](C)[C@H](NC(=O)[C@H](Cc1ccccc1)NC(=O)[C@H](CCCNC(=N)N)NC(=O)[C@H](CCC(N)=O)NC(=O)[C@H](CC(C)C)NC(=O)[C@H](C)NC(=O)[C@H](C)NC(=O)CNC(=O)[C@H](CCC(=O)O)NC(=O)[C@H](CC(C)C)NC(=O)[C@H](CC(C)C)NC(=O)C(C)(C)NC(=O)[C@H](CO)NC(=O)[C@H](Cc1c[nH]c2ccccc12)NC(=O)[C@H](CC(=O)O)NC(=O)[C@H](CO)NC(=O)[C@@H](NC(=O)[C@H](Cc1ccccc1)NC(=O)[C@@H](NC(=O)CNC(=O)[C@H](CCC(=O)O)NC(=O)C(C)(C)NC(=O)[C@@H](N)Cc1c[nH]cn1)[C@@H](C)O)[C@@H](C)O)C(=O)N[C@@H](CCC(N)=O)C(=O)N[C@@H](Cc1c[nH]c2ccccc12)C(=O)N[C@@H](CC(C)C)C(=O)N[C@H](C(N)=O)C(C)C [compound 192] (H-H[Aib]EGTFTSDWS[Aib]LLEGAALQRFIQWLV-NH2)
8355 | 1580 | 12.6 | 114 | 0.27 | CC[C@H](C)[C@H](NC(=O)[C@H](Cc1ccccc1)NC(=O)[C@H](CCCNC(=N)N)NC(=O)[C@H](CCC(N)=O)NC(=O)[C@H](CC(C)C)NC(=O)[C@H](C)NC(=O)[C@H](C)NC(=O)CNC(=O)[C@H](CCC(=O)O)NC(=O)[C@H](CC(C)C)NC(=O)[C@H](CC(C)C)NC(=O)[C@H](CCCNC(=N)N)NC(=O)[C@H](CO)NC(=O)[C@H](Cc1ccc(O)cc1)NC(=O)[C@H](CC(=O)O)NC(=O)[C@H](CO)NC(=O)[C@@H](NC(=O)[C@H](Cc1ccccc1)NC(=O)[C@@H](NC(=O)CNC(=O)[C@H](CCC(=O)O)NC(=O)C(C)(C)NC(=O)[C@@H](N)Cc1c[nH]cn1)[C@@H](C)O)[C@@H](C)O)C(=O)N[C@@H](CCC(N)=O)C(=O)N[C@@H](Cc1c[nH]c2ccccc12)C(=O)N[C@@H](CC(C)C)C(=O)N[C@H](C(N)=O)C(C)C [compound 194] (H-H[Aib]EGTFTSDYSRLLEGAALQRFIQWLV-NH2)
144234 | 10000 | 25.1 | 419 | 0.25 | CC[C@H](C)[C@H](NC(=O)[C@H](Cc1ccccc1)NC(=O)[C@H](CCCNC(=N)N)NC(=O)[C@H](CCC(N)=O)NC(=O)[C@H](CC(C)C)NC(=O)[C@H](C)NC(=O)[C@H](C)NC(=O)CNC(=O)[C@H](CCC(=O)O)NC(=O)[C@H](CC(C)C)NC(=O)[C@H](CC(C)C)NC(=O)CNC(=O)[C@H](CO)NC(=O)[C@H](Cc1ccc(O)cc1)NC(=O)[C@H](CC(=O)O)NC(=O)[C@H](CO)NC(=O)[C@@H](NC(=O)[C@H](Cc1ccccc1)NC(=O)[C@@H](NC(=O)CNC(=O)[C@H](CCC(=O)O)NC(=O)C(C)(C)NC(=O)[C@@H](N)Cc1c[nH]cn1)[C@@H](C)O)[C@@H](C)O)C(=O)N[C@@H](CCC(N)=O)C(=O)N[C@@H](Cc1c[nH]c2ccccc12)C(=O)N[C@@H](CC(C)C)C(=O)N[C@H](C(N)=O)C(C)C [compound 195] (H-H[Aib]EGTFTSDYSGLLEGAALQRFIQWLV-NH2)
